{"source": "patent US11479525B2", "about": "“Propenylamines and methods of making and using same” (3M INNOVATIVE PROPERTIES COMPANY, priority 2016, dated 2022)", "assay": "Atmospheric lifetime from the rate of reaction with hydroxyl radicals, relative to reference compounds (FTIR gas cell)", "assay_type": "physicochemical", "details": "gas phase reaction with hydroxyl radical relative to chloromethane/ethane; for Atmospheric Lifetime, E-isomer: E-isomer of the 1-propenylamine; for Atmospheric Lifetime, Z-isomer: Z-isomer of the 1-propenylamine", "experimental": "The atmospheric lifetimes of 1-propenylamines were determined from their rate of reaction with hydroxyl radicals. The pseudo-first order rates for the reaction of the gaseous 1-propenylamines with hydroxyl radical were measured in a series of experiments relative to reference compounds such as chloromethane and ethane. The measurements were performed in a 5.7 L, heated FTIR gas cell equipped with a polished semiconductor-grade quartz window. An Oriel Instruments UV Lamp, Model 66921 equipped with a 480 W mercury-xenon bulb was used to generate hydroxyl radicals by photolyzing ozone in the presence of water vapor. The concentrations of the 1-propenylamine and the reference compound were measured as a function of reaction time using an I-Series FTIR from Midac Corporation. The atmospheric lifetimes were calculated from the reaction rates for the 1-propenylamines relative to the reference compounds and the reported lifetime of the reference compounds as shown below:\n[formula] where τx is the atmospheric lifetime of the 1-propenylamine, τr is the atmospheric lifetime of the reference compound, and kx and kr are the rate constants for the reaction of hydroxyl radical with the isomeric 1-propenylamines and the reference compound, respectively.", "data": [{"smiles": "FC(=C(F)C(F)(F)F)N(C(F)(F)F)C(F)(F)F", "note": "[(CF3)2N—CF═CFCF3, 1,2,3,3,3-pentafluoro-N,N-bis(trifluoromethyl)prop-1-en-1-amine]", "values": [{"measurement": "Atmospheric Lifetime, E-isomer", "result": 0.71, "unit": "Yrs"}, {"measurement": "Atmospheric Lifetime, Z-isomer", "result": 1.9, "unit": "Yrs"}]}, {"smiles": "FC(=C(F)C(F)(F)F)N(C(F)(F)F)C(F)(F)C(F)(F)F", "note": "[C2F5(CF3)N—CF═CFCF3]", "values": [{"measurement": "Atmospheric Lifetime, E-isomer", "result": 1.4, "unit": "Yrs"}, {"measurement": "Atmospheric Lifetime, Z-isomer", "result": 3.5, "unit": "Yrs"}]}]}
